pIC50: −log10 of the molar value. Each block holds one compound with its values, some of them ahead of it.
Experiments:
ASV vector [1] = test: Viral DNA synthesis in ASV-infected HeLa cells (real time PCR); format: cell-based; details: up to 4 mM; 24 hr post-infection
Protocol: Real Time PCR. Extrachromosomal DNA from infected and uninfected cells was prepared by HIRT extraction. Real-Time PCR amplification, data-acquisition and analysis were preformed with the Cephid Smart Cycler. The Biochemistry and Biotechnology Facility at the Fox Chase Cancer Center prepared the primers using BHQ-1 non-fluorogenic quencher (Biosearch Technologies). Viral sequence primers directed against ASV pol were selected using Primer Express™ (Applied Biosystems) and had the following sequences: Forward primer, 5′-[…]-3′ (SEQ ID NO:1); Reverse primer, 5′-[…]-3′ (SEQ ID NO:2); Probe, 5′-(FAM) CC […] (BHQ)-3′ (SEQ ID NO:3). Results were normalized with those from primers against mitochondrial DNA (Asaad et al., Oncogene 19: 5788-5800, 2000). Each reaction contained 1× Reaction Buffer (20 mM Tris-HCl, pH 8.4), 50 mM KCl), 0.25 mM each dNTP, 2.5 mM MgCl2, 400 nM primers, 200 nM probe and 2.5 U Platinum Taq Polymerase (Invitrogen). Relative quantitation was calculated with the Comparative Cycle Threshold Method using the untreated samples as the reference (User, B. ABI Prism 7700 Sequence Detection System; the Perkin Elmer Corporation, P/N 4303859 Rev. A. Stock No. 77802-001, 1997). […] Relative quantitation was averaged and standard deviations were determined between independent experiments.
Synthesis of viral DNA was detected by quantitative PCR.

HIV-1 strain NL4-3 = test: 2-LTR DNA junctions (nuclear import) in NL4-3-infected PBMCs; format: cell-based; details: 24 hours post-infection
[2] = test system: primary human macrophages; test: Cytotoxicity in primary human macrophages; details: conditions of the transduction test
PBMC = details: at the utilized concentration (4 mM)
[3] = test system: neomycin phosphotransferase II; test: Expression of neo reporter in stably transduced HeLa cells (Western blot); format: cell-based; details: 24 hr, up to 4 mM caffeine
Protocol: Western Blot Analyses. […] Cells were then harvested, lysed, and lysates were subjected to electrophoresis in a 10% SDS polyacrylamide gel. The separated proteins were then transferred to a PVDF membrane and the filter was treated with neomycin phosphotransferase II antibody (Upstate Biotech). Bands were detected using a chemi-luminiscence assay.

HIV-1 integrase = target: T1, HIV-1 integrase (Human immunodeficiency virus type 1 group M subtype B, UniProt P04585); test: In vitro integrase activity, HIV-1 integrase; format: biochemical; details: up to 10 mM
T1 construct: For HIV-1 integrase, reactions contained 1.0 M HIV IN
Protocol: For HIV-1 integrase, reactions contained […] HIV IN, 1.0 μM U5 21/21 substrate (Katz & Skalka, Ann. Rev. Biochem. 63: 133-173, 1994; Coffin et al., Retroviruses, Cold Spring Harbor Laboratory, 1997) in 22 mM Hepes, pH 7.5, 5.1 mM DTT, 6% glycerol, 6.66% DMSO, 50 mM KCl and 10 mM MnCl2. Conditions were as described for ASV IN, except that the final incubation time was 60 min.

HIV-1-based vector [4] = test: Stable transduction of HeLa cells by HIV-1-lacZ vector; format: cell-based; details: Human immunodeficiency virus 1, HeLa, read-out: IC50, reduction in number of cells stably transduced by HIV-1 vector
Protocol: (§1) Infection of HeLa Cells. […] The virus-containing medium was then replaced with fresh medium. Two to seven days after infection with the HIV-1 vector (as indicated) cells were stained using a β-galactosidase assay (Stratagene). Cells were selected for G418 resistance one day after infection with the ASV vector by addition of 1 mg/ml G418.
(§2) After infection with ASV, G418 was also added at this time.
Transduction was measured five to six days later by the presence of β-galactosidase positive colonies.

HIV-1-based vector [5] = test: HIV-1 vector transduction of dividing and nocodazole-arrested 293T cells; format: cell-based
Protocol: To arrest cells in M phase, cells were treated with nocodazole (1 μg/ml) for 24 hrs prior to addition of the virus. Nocodazole was maintained in the cell culture medium during and after infection. Cells were distributed in a 24-well plate at a density of 5×10^4 cells per well and nocodazole was added to a final concentration of 1 μg/ml. […] Two days post-infection, cells were stained using a β-galactosidase assay (Stratagene according to manufacturer's protocol) and blue cells counted.

DNA-PK = DNA-PK (Homo sapiens, UniProt P78527); details: cited from earlier work
ATR kinase = ATR kinase (Homo sapiens, UniProt Q13535); details: in vitro; read-out: IC50 for ATR kinase inhibition; cited from earlier work
ASV-based vector = test: Stable transduction of HeLa cells by ASV neo vector; format: cell-based; details: 24 h, read-out: IC50, reduction in number of cells stably transduced by ASV vector
Protocol: as §1, §2

HIV-1 NL4-3 (X4) strain = test: HIV-1 NL4-3 replication in PBMCs (p24 antigen ELISA); format: cell-based; details: 4 mM; for drop in HIV-1 p24 antigen levels: 7 days post-infection; for p24 antigen levels vs control: 12 days post-infection; for decrease in HIV-1 p24 antigen vs NL4-3 infected control: day 3 post-infection; for inhibition of NL4-3 growth: p24 at 6 days post-infection
mTOR = mTOR (Homo sapiens, UniProt P42345); details: cited from earlier work
ATM kinase = ATM kinase (Homo sapiens, UniProt Q13315); details: in vitro; read-out: IC50 for ATM kinase inhibition; cited from earlier work
HIV-1-based vector [6] = test: HIV-1 vector transduction of terminally differentiated primary macrophages; format: cell-based; details: caffeine 24 hrs
Protocol: Human peripheral blood mononuclear cells (PBMC) were isolated by centrifugation in Ficoll-Hypaque (Sigma, St. Louis, Mo., USA) from buffy coats of HIV-1 seronegative individuals. Monocyte-derived macrophages (MDM) were obtained from PBMC by adherence to plastic for 12 hours in DMEM supplemented with 10% human serum (Cellgro, Herndon, Va., USA), washed, and cultured in the same medium in the presence of macrophage colony-stimulating factor (MCSF, 2 ng/ml; Sigma, St. Louis, Mo., USA) for another 7-10 days, allowing cells to differentiate before infection. The medium was replaced twice during the incubation period. The primary cells were kept at 37° C. in a humidified incubator with 5% CO2.

293T cells = test: Cytotoxicity in 293T cells; details: conditions of the transduction test
ASV vector [7] = test: Nuclear import: LTR-LTR circle junctions in ASV-infected HeLa cells; format: cell-based
ASV vector [8] = test: organism not typed; format: cell-based; details: HeLa, 24 h, read-out: inhibition of integration (host-viral junction DNA)
HIV-1-based vector [9] = test: Transduction of parental GM847 cells treated with doxycycline; format: cell-based
PCNA [10] = test: PCNA Western blot in nocodazole-treated GM847/ATRkd cells; format: cell-based, human; details: nocodazole 1 μg/ml
Protocol: GM847/ATRkd cells were plated at a density of 2×10^4 cells per well of 24-well plate, in the presence or absence of doxycycline (5 μg/ml) and nocodazole (1 μg/ml).
To examine the role of ATR in growth-arrested cells, the GM847/ATRkd cells were treated with nocodazole in addition to doxycycline.

PCNA [11] = test: PCNA Western blot in nocodazole-treated 293T cells; format: cell-based; details: nocodazole 1 μg/ml, 24 hrs
Protocol: To determine the efficiency of the nocodazole arrest, cells were assayed for expression of the proliferating-cell nuclear antigen (PCNA) by Western blotting with an anti-PCNA antibody. PCNA accumulates in cells as they enter S phase, but is rapidly degraded in other phases of the cell cycle. (Takase, K et al. Reversible G1 arrest induced by dimethyl sulfoxide in human lymphoid cell lines: kinetics of the arrest and expression of the cell cycle marker proliferating cell nuclear antigen in Raji cells. Cell Growth Differ 1992, 3:515-521).

[12] = test system: retroviral transduction of HeLa cells; test: Retroviral transduction of HeLa cells treated with mTOR inhibitor
[13] = test system: macrophage-tropic (R5) HIV-1 strain, ADA; test: HIV-1 ADA replication in PBMCs (p24 antigen); format: cell-based; details: Human immunodeficiency virus 1, PBMC, p24 at 6 days post-infection
[14] = cited from earlier work
[15] = test system: p53 phosphorylated on serine 15; test: p53 serine 15 phosphorylation in NL4-3-infected PBMCs (Western blot); format: cell-based, human; details: 24 hrs
[16] = test system: BRCA1 phosphorylated on serine 1423; test: BRCA1 serine 1423 phosphorylation in PBMCs (Western blot); format: cell-based, human

Chain of ATR kinase (Q13535 whole entry): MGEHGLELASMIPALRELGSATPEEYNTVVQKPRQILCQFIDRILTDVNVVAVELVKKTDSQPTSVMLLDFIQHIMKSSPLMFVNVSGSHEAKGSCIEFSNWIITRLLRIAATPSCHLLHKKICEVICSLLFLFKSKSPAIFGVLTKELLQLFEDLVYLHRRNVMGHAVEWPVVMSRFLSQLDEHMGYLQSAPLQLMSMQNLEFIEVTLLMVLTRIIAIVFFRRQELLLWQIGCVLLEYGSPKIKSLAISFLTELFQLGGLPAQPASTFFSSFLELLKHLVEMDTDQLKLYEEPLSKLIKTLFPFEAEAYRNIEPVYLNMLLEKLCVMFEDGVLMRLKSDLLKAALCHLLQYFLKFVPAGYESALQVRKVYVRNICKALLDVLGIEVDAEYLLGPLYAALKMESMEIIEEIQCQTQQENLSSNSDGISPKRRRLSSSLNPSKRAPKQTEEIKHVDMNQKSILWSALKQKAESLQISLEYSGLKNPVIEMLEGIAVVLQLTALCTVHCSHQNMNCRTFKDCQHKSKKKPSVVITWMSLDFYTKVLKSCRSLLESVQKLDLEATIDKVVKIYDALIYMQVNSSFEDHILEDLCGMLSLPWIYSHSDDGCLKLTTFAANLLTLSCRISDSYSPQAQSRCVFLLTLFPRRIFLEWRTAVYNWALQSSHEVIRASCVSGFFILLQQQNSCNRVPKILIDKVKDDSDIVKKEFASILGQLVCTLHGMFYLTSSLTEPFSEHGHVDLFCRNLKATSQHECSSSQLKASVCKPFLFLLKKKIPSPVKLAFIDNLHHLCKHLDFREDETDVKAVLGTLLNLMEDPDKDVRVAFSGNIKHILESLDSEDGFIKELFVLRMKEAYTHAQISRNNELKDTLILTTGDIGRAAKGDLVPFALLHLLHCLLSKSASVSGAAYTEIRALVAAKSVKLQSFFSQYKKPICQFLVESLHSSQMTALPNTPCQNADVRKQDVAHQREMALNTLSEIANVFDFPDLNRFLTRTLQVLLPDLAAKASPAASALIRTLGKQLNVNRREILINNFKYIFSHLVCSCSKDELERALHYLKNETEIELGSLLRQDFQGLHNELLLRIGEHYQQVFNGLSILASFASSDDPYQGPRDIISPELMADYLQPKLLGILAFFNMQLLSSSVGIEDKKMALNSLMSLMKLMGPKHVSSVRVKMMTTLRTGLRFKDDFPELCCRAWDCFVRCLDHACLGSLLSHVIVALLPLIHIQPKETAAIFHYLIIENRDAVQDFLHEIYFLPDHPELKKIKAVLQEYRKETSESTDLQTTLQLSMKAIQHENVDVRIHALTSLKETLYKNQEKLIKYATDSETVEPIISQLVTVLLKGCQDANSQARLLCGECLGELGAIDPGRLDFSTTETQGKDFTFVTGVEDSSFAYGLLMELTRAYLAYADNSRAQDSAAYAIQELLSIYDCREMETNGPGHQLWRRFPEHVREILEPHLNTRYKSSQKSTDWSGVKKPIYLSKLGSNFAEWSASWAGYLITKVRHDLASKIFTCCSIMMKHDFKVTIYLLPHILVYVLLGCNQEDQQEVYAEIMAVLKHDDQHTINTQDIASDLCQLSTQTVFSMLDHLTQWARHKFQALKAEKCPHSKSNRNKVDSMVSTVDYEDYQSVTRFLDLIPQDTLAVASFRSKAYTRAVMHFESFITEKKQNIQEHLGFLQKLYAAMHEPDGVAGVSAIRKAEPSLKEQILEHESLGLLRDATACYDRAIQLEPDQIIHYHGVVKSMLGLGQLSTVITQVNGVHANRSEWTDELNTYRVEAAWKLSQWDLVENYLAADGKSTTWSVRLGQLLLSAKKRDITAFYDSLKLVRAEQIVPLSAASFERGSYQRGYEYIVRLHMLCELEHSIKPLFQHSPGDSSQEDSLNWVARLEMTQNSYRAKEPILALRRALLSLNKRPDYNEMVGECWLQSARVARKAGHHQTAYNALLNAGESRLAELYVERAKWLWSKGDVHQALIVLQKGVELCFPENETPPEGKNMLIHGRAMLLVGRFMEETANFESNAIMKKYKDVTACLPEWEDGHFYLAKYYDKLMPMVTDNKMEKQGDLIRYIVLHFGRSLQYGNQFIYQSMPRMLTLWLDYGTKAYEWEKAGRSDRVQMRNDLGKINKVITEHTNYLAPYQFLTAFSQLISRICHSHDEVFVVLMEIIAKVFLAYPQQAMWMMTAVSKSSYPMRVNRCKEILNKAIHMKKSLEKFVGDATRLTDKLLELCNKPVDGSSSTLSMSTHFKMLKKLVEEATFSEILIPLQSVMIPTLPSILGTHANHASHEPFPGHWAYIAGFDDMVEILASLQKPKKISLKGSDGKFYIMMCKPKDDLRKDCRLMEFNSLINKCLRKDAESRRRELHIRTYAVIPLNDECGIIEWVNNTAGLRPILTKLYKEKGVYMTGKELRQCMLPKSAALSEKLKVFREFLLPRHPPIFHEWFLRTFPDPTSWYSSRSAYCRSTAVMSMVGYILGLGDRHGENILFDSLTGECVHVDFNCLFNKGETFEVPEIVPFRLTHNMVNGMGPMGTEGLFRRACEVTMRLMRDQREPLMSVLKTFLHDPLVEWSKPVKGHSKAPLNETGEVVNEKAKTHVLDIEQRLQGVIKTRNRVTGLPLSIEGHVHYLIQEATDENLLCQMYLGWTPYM
Chain of ATR kinase (Q8WXE1 whole entry partner): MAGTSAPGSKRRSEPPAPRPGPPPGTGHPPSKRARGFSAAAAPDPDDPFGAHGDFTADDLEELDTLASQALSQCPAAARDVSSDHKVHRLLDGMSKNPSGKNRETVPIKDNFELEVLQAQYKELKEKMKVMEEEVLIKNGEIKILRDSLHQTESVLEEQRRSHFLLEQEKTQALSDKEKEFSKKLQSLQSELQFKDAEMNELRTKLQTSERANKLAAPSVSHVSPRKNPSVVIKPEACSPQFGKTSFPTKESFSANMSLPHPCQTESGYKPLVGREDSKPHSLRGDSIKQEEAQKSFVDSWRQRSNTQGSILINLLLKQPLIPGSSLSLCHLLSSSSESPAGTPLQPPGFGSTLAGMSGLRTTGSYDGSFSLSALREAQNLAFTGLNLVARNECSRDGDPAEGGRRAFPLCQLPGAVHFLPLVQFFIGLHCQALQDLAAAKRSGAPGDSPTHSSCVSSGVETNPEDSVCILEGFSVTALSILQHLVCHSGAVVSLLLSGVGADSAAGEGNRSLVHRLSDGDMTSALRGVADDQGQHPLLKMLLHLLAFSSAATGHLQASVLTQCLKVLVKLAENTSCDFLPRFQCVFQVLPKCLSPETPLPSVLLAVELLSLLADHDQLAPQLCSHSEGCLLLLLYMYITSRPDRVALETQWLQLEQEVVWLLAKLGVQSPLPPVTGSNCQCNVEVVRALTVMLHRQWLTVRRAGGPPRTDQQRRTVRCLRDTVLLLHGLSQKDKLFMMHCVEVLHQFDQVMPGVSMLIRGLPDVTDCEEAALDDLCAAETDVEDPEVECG

Compound: Cn1c(=O)c2c(ncn2C)n(C)c1=O [caffeine, 1,3,7-trimethylxanthine]
effect on amount of viral DNA detected (ASV vector [1]): only a modest effect
level of 2-LTR junctions (HIV-1 strain NL4-3): No significant inhibitory effect
cytotoxicity [2]: no visible cytotoxicity
cellular cytotoxicity (XTT assay) (PBMC): did not show any significant cellular cytotoxicity
amount of reporter protein (neomycin phosphotransferase) [3]: no reduction
processing activity of HIV-1 integrase (HIV-1 integrase): unaffected
pIC50 (HIV-1-based vector [4]): ~2.82
transduction by multiply attenuated HIV-1-based vector (lacking vpr, vif, vpu, nef) (HIV-1-based vector [5]; 293T cells, dividing and nocodazole-arrested): inhibited
HIV-transduction of dividing cells (HIV-1-based vector [5]; exponentially dividing 293T cells, caffeine 24 h, dose-dependent): inhibited
HIV-transduction of nocodazole-arrested cells (HIV-1-based vector [5]; nocodazole-arrested 293T cells, caffeine 24 h, dose-dependent): inhibited
sensitivity of DNA-PK to caffeine (DNA-PK): not sensitive
pIC50 (ATR kinase): 2.70 to 3.00
pIC50 (ASV-based vector): ~3.10
drop in HIV-1 p24 antigen levels (HIV-1 NL4-3 (X4) strain): three
p24 antigen levels vs control (HIV-1 NL4-3 (X4) strain): reached the control level
decrease in HIV-1 p24 antigen vs NL4-3 infected control (HIV-1 NL4-3 (X4) strain): 9 fold
inhibition of NL4-3 growth (HIV-1 NL4-3 (X4) strain): approximately 9 fold
inhibition of mTOR in vitro (mTOR): inhibits
pIC50 (ATM kinase): 2.70 to 3.00
transduction of terminally differentiated primary human macrophages (HIV-1-based vector [6]): inhibit
cytotoxicity (293T cells): No caffeine cytotoxicity
formation of circle junctions (ASV vector [7]; 2 mM caffeine): not significantly affected
formation of circle junctions (ASV vector [7]; 4 mM caffeine): only a modest decrease
inhibition at 4000 µM (ASV vector [8]): 88%

Compound: C[C@H]1c2cccc(O)c2C(=O)C2=C(O)[C@]3(O)C(=O)C(C(N)=O)=C(O)[C@@H](N(C)C)[C@@H]3[C@@H](O)[C@@H]21 [doxycycline]
effect on transduction of parental cells (HIV-1-based vector [9]): no effect

Compound: COC(=O)Nc1nc2ccc(C(=O)c3cccs3)cc2[nH]1 [nocodazole]
amount of PCNA relative to exponentially dividing cells (PCNA [10]): 10-20%
amount of PCNA relative to exponentially dividing cells (PCNA [11]): ≤ 5%

Compound: CO[C@H]1C[C@@H]2CC[C@@H](C)[C@@](O)(O2)C(=O)C(=O)N2CCCC[C@H]2C(=O)O[C@H]([C@H](C)C[C@@H]2CC[C@@H](O)[C@H](OC)C2)CC(=O)[C@H](C)/C=C(\C)[C@@H](O)[C@@H](OC)C(=O)[C@H](C)C[C@H](C)/C=C/C=C/C=C/1C [rapamycin]
effect on retroviral transduction [12]: no effect

pIC50 [13]: ~4.00
Compound: Cn1cnc2c1c(=O)[nH]c(=O)n2C [theobromine, 3,7-dimethylxanthine]
inhibition of NL4-3 growth (HIV-1 NL4-3 (X4) strain): ~2 fold

pIC50 [13]: ~4.22
Compound: Cn1c(=O)c2[nH]cnc2n(C)c1=O [theophylline, 1,3-dimethylxanthine]
cellular cytotoxicity (XTT assay) (PBMC): did not show any significant cellular cytotoxicity
drop in HIV-1 p24 antigen levels (HIV-1 NL4-3 (X4) strain): four-fold
p24 antigen levels vs control (HIV-1 NL4-3 (X4) strain): reached the control level
decrease in HIV-1 p24 antigen vs NL4-3 infected control (HIV-1 NL4-3 (X4) strain): 9 fold
inhibition of NL4-3 growth (HIV-1 NL4-3 (X4) strain): ~5 fold
concentration reached in plasma of theophylline-treated patients [14]: 28 to 110 µM
p53 phosphorylation (serine 15) [15]: suppressed
BRCA1 phosphorylation (serine 1423) ([16]; NL4-3-infected PBMCs, 24 hrs): suppressed
basal phosphorylation of BRCA1 on serine 1423 ([16]; PBMCs, basal): failed to suppress
